Experimental data: patent publication US5141735A (priority 1990, dated 1992)
Read-outs that look alike come from different tables or passages of the source.

Key:
[1] = tested on: HIV-TAT; assay: Anti-HIV-TAT transfection assay (SeAP under HIV-LTR vs RSV-LTR in COS cells); format: cell-based; settings: 1-50 μM; HIV-LTR/SeAP relative to RSV-LTR/SeAP; added 24 hours post transfection; average of at least three tests
Procedure: The compounds of the present invention were also tested for anti-HIV-TAT activity in an anti-TAT assay described in co-pending patent application U.S. Ser. No. 07/428,555, filed on Oct. 30, 1989, and hereby incorporated by reference. This assay comprises the following steps:
(a) putting both the expression of the Secreted Alkaline Phosphatase (SeAP) gene and the viral transactivator TAT gene under the control of the HIV promoter LTR responsive to the action of the HIV transactivator TAT;
(b) transfecting cultured mammalian cells with plasmids which contain the gene constructs of (a) above and cause cellular production of the transactivating factor TAT and SeAP;
(c) adding the agent to be tested, here compounds of formula I; and
(d) determining the amount of SeAP produced by measuring SeAP enzymatic activity, whereby inhibition of SeAP production correlates with the anti-TAT inhibition activity.
In this assay, the inhibition of SeAP positively correlates with anti-TAT activity. The greater the ability of an agent to inhibit SeAP, the greater is its anti-TAT activity.
Specifically, with respect to the results reported below, the anti-HIV-TAT assay was run as follows: […]
determined by measuring the amount of alkaline phosphatase in […]
calculated according to the formula: […]

[2] = tested on: HIV-1-infected CEM-cells (strain N1T); assay: Anti-HIV effect: reduction of immunofluorescence-positive CEM cells (cell-associated viral antigens); format: cell-based
Procedure: (§1) Compounds were tested directly for their anti-HIV effect. The assay protocols for the inhibition of HIV-cytopathic effect and the reduction of cell-associated viral antigens were modified from published procedures (Mitsuya, et al. P.N.A.S, USA 83:1911 (1986), and Hedenskog et al., J. Med. Virol. 19:325 (I986)).
(§2) High titer virus stocks (HIV-1 NIT strain or HIV-2 uc-1 strain) were grown in CD4^+ CR10 cells in RMPI-1640 media (Gibco Laboratories) supplemented with 10% fetal calf serum and 0.1 mg/ml Gentamicin. The collected media were filtered through a 0.8 micron filter and virus isolates were concentrated 100 fold and stored at -80° C.
(§3) CD4^+ CEM cells, propagated in the same medium, were incubated for 60 minutes at 37° C. with diluted stock virus at a multiplicity of infection equal to 1 (MOI=1, approximately 1 pg p24 or 4,000 viral particles per cell). Cells were washed three times with phosphate buffered saline and resuspended in the medium at 2×10^5 cells/ml. Various quantities of the test compound in DMSO, synthesized as described above were added. Four days after infection, the number of live cells were counted by trypan blue exclusion (Mitsuya, et al. Proc. Natl. Acad. Sci. 83:1911 (1986)). At the same time, aliquots of cells were fixed with acetone and stained with antibodies from AIDS patients, followed by a second staining with fluorescein-conjugated goat anti-human IgG (Cappel). Cells stained with the fluorescent antibody were counted using a fluorescence microscope and the results were expressed as percentage of the total number of cells counted (Hedenskog et al., J. Med. Virol 19:325 (1986)).
*ID50 (μM) is the concentration of test compound that reduces the
number of immunofluorescence positive cells by 50%.

[3] = tested on: viral p24 antigen; assay: Viral p24 antigen in culture media measured by ELISA; format: cell-based, HIV; settings: acutely infected CEM cells, FIG. 2
Procedure: As an additional measure of anti-HIV activity, the amount of p24 antigen in the culture media was measured by ELISA (Abbott) according to the procedure described by the manufacturer. This measurement is an indication of HIV virus replication.

[4] = tested on: Cell lines 193c, 191F and 199F; assay: Cytotoxicity by MTT assay in CHO-derived cell lines 193c, 191F and 199F; format: cell-based, Chinese hamster; settings: FIG. 4
Procedure: The Y-axis is (1) the percent inhibition in TAT transactivation measured according to SeAP activity in culture media (discussed infra), and (2) a measurement of cytotoxicity based on an MTT assay. The MTT assay is a known tetrazolium-based assay which measures the viability of cells. The X-axis is the concentration of compound. The solid circles, diamonds and squares represent the three different cell lines identified at the bottom of the Figure.
Compounds of formula I were also tested for anti-HIV-TAT activity with cell lines that constitutively express the SeAP gene under the control of the HIV-LTR. Cell lines 193c, 191F and 199F were derived from CHO cells (cell line of Chinese hamster ovary origin). Each line is of clonal origin and has the HIV-LTR/SeAP and the HIV-LTR/TAT sequences integrated in the cellular chromosome. One day after cells were plated (approximately 30% confluency), a compound of formula I in DMSO (0.05% final concentration) was added to the culture media at desired concentrations. The cells were washed and Compound A was replenished one day later. SeAP activity was assayed two days after the second addition of test compound. The cytotoxic effect of the compound was measured with a MTT assay, an art-recognized measurement of cytotoxicity. See Denigot et al., J. Immunol. Methods 89:271 (1986). […]

[5] = tested on: viral RNA; assay: Cell-associated viral RNA by RNA-RNA hybridization/reversible target capture; format: cell-based, HIV; settings: acutely infected CEM cells, FIG. 2
Procedure: In addition, the viral RNA in infected cells was quantified with an RNA-RNA hybridization/reversible target capture procedure [Gillespie et al. Molecular and Cellular Probes, 2:73 (1989)]. Reagents were purchased from GeneTrack System (MA, USA) and assays were carried out according to the procedure described by the manufacturers. 2×10^5 live cells, determined by trypan blue exclusion, were used in each assay.

[6] = tested on: HIV-1-infected CEM-cells; assay: Inhibition of HIV-cytopathic effect: live cell count by trypan blue exclusion; format: cell-based
Procedure: as §1, §2, §3

[7] = tested on: HIV-TAT; assay: Anti-HIV-TAT activity in CHO-derived cell lines constitutively expressing SeAP under HIV-LTR; format: cell-based; settings: FIG. 4
Procedure: Compounds of formula I were also tested for anti-HIV-TAT activity with cell lines that constitutively express the SeAP gene under the control of the HIV-LTR. Cell lines 193c, 191F and 199F were derived from CHO cells (cell line of Chinese hamster ovary origin). Each line is of clonal origin and has the HIV-LTR/SeAP and the HIV-LTR/TAT sequences integrated in the cellular chromosome. One day after cells were plated (approximately 30% confluency), a compound of formula I in DMSO (0.05% final concentration) was added to the culture media at desired concentrations. The cells were washed and Compound A was replenished one day later. SeAP activity was assayed two days after the second addition of test compound. The cytotoxic effect of the compound was measured with a MTT assay, an art-recognized measurement of cytotoxicity. See Denigot et al., J. Immunol. Methods 89:271 (1986). This assay also confirmed the specific anti-TAT activity of applicants' compounds.

[8] = tested on: HIV; settings: body weight; cited from earlier work
[9] = tested on: viremia; settings: cited from earlier work
[10] = Human immunodeficiency virus 1, CCRF-CEM, 96 h, concentration that reduces the number of immunofluorescence positive cells by 50%, Table I, read-out: Anti-HIV ID50

In the case of `NC1=Nc2ccc(Cl)cc2C(c2ccc[nH]2)=NC1` [NH2, 7-chloro-5-(1H-pyrrol-2-yl)-3H-1,4-benzodiazepin-2-amine], the “Anti-HIV-TAT Activity (% Inhibition)” value [1] is reported as greater than 60% and the IC50 [2, 10] is reported as 1000 nM.
For `CNC1=Nc2ccc(Cl)cc2C(c2ccc[nH]2)=NC1` [Compound A, 7-chloro-N-methyl-5-(1H-pyrrol-2-yl)-3H-1,4-benzodiazepin-2-amine], the “Anti-HIV-TAT Activity (% Inhibition)” value [1] was greater than 60%, the “amount of viral p24 antigen” value [3] was “dramatically reduces” and the IC50 ([2]; Human immunodeficiency virus 1, CCRF-CEM, 96 h, FIG. 1, HIV-1-infected CEM-cells (strain N1T), read-out: ID50 (the source's name)) was 500 nM. For the same compound, the IC90 ([2]; Human immunodeficiency virus 1, CCRF-CEM, 96 h, FIG. 1, HIV-1-infected CEM-cells (strain N1T), read-out: ID90 (the source's name)) was 1000 nM, the IC50 [2, 10] was 500 to 1000 nM and the “percentage of cells that are immunofluorescence-positive following staining with HIV antibodies” value ([2]; increasing amounts of compound, FIG. 1) was “decline in the percentage of cells that are immunofluorescence-positive”. For the same compound, the “cytotoxic effect on the cells” value [4] was “no cytotoxic effect on the cells”, the “amount of cell-associated viral RNA” value [5] was “dramatically reduces” and the “survival rate for the HIV-infected cells” value ([6]; 5 μM, FIG. 1, HIV-1-infected CEM-cells) was “very close to that of uninfected cells”. The “survival of HIV-infected cells with increasing concentrations” value ([6]; FIG. 1) was “greater survival of HIV-infected cells”, the “cell survival in comparison to AZT or ddC” value ([6]; acutely infected CEM cells, FIG. 2) was “at least similar, and at several compound concentrations, better, cell survival than AZT or ddC” and the “inhibition of SeAP expression under the control of the HIV-LTR promoter” value [7] was “significantly inhibits SeAP expression”.
In the case of `Nc1ccn([C@H]2CC[C@@H](CO)O2)c(=O)n1` [ddC], the “virustatic dose range in most patients” value [8] is listed as 5 to 250 µg/kg.
In the case of `Cc1cn([C@H]2C[C@H](N=[N+]=[N-])[C@@H](CO)O2)c(=O)[nH]c1=O` [AZT], the “elimination of viremia in patients” value [9] is listed as “does not eliminate viremia in patients” and the drug resistance ([9]; patients) is listed as “eventually the appearance of drug-resistant mutant viruses is evidenced”.
